According to patent US9845310B2 (priority 2015, dated 2017):
Read-outs that look alike come from different tables or passages of the source.

Molecular target: APJ (Homo sapiens (Human), UniProt P35414)
Test: [35S]GTPγS binding assay on membranes from CHO cells stably expressing human APJ receptor
Type: biochemical
[1] = read-out: Activity hAPJ SPA EC50 IP

Chain of APJ (P35414 whole entry): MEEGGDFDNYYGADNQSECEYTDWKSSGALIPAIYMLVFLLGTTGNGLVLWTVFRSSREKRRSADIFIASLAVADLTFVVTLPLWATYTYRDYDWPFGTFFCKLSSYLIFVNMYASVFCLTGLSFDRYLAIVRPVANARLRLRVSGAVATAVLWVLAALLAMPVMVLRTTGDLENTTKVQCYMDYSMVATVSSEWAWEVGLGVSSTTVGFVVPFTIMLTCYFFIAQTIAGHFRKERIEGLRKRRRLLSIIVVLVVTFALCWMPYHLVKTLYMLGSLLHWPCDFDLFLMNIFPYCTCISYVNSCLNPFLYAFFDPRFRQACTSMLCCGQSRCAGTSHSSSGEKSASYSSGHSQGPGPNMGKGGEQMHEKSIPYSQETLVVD

SMILES	EC50 (Activity hAPJ SPA EC50 IP (μM))	EC50 [1]
COc1cnc([C@H](O)[C@@H](C)S(=O)(=O)Nc2nnc(-c3cccnc3)n2-c2c(OC)cccc2OC)cn1 (mixture of isomers) [Example 703.0, (1R,2S)-N-(4-(2,6-dimethoxyphenyl)-5-(3-pyridinyl)-4H-1,2,4-triazol-3-yl)-1-hydroxy-1-(5-methoxy-2-pyrazinyl)-2-propanesulfonamide and (1S,2R)-N-(4-(2,6-dimethoxyphenyl)-5-(3-pyridinyl)-4H-1,2,4-triazol-3-yl)-1-hydroxy-1-(5-methoxy-2-pyrazinyl)-2-propanesulfonamide]	0.002 µM	
COc1cccc(-c2nnc(NS(=O)(=O)[C@H](C)[C@@H](O)c3cc(C)n(C)n3)n2-c2c(OC)cccc2OC)n1 (racemic) [Example 260.0, (1S,2R)-N-(4-(2,6-dimethoxyphenyl)-5-(6-methoxypyridin-2-yl)-4H-1,2,4-triazol-3-yl)-1-(1,5-dimethyl-1H-pyrazol-3-yl)-1-hydroxypropane-2-sulfonamide and (1R,2S)-N-(4-(2,6-dimethoxyphenyl)-5-(6-methoxypyridin-2-yl)-4H-1,2,4-triazol-3-yl)-1-(1,5-dimethyl-1H-pyrazol-3-yl)-1-hydroxypropane-2-sulfonamide]	0.0024 µM	
COc1cccc(-c2nnc(NS(=O)(=O)[C@@H](C)[C@H](C)c3ncc(F)cn3)n2-c2cn(C)c3ccccc23)n1 (racemic) [Example 451.0, (2S,3R)-3-(5-fluoro-2-pyrimidinyl)-N-(5-(6-methoxy-2-pyridinyl)-4-(1-methyl-1H-indol-3-yl)-4H-1,2,4-triazol-3-yl)-2-butanesulfonamide and (2R,3S)-3-(5-fluoro-2-pyrimidinyl)-N-(5-(6-methoxy-2-pyridinyl)-4-(1-methyl-1H-indol-3-yl)-4H-1,2,4-triazol-3-yl)-2-butanesulfonamide]	0.045 µM	
CC#C[C@@H](O)[C@H](C)S(=O)(=O)Nc1nnc(-c2cncc(C)c2)n1-c1c(OC)cccc1OC (racemic) [Example 764.0, (2R,3S)-N-(4-(2,6-dimethoxyphenyl)-5-(5-methyl-3-pyridinyl)-4H-1,2,4-triazol-3-yl)-3-hydroxy-4-hexyne-2-sulfonamide and (2S,3R)-N-(4-(2,6-dimethoxyphenyl)-5-(5-methyl-3-pyridinyl)-4H-1,2,4-triazol-3-yl)-3-hydroxy-4-hexyne-2-sulfonamide]	0.027 µM	
COc1cccc(-c2nnc(NS(=O)(=O)[C@@H](C)[C@H](OC(C)C)c3ncc(C)cn3)n2-c2c(OC)cccc2OC)n1 (single isomer, unassigned) [Example 96.0]	0.00026 µM	
COc1cccc(-c2nnc(NS(=O)(=O)[C@H](C)[C@@H](OC(C)C)c3ncc(C)cn3)n2-c2c(OC)cccc2OC)n1 (single isomer, unassigned) [Example 97.0]	0.002 µM	
COc1cccc(-c2nnc(NS(=O)(=O)[C@H](C)[C@H](OC(C)C)c3ncc(C)cn3)n2-c2c(OC)cccc2OC)n1 (single isomer, unassigned) [Example 98.0]	0.0099 µM	
COc1cccc(OC)c1-n1c(NS(=O)(=O)[C@@H](C)[C@H](C)c2ncc(F)cn2)nnc1-c1cccnc1 (single isomer, unassigned) [Example 183.0, (2R,3S)-N-(4-(2,6-dimethoxyphenyl)-5-(3-pyridinyl)-4H-1,2,4-triazol-3-yl)-3-(5-fluoro-2-pyrimidinyl)-2-butanesulfonamide or (2S,3R)-N-(4-(2,6-dimethoxyphenyl)-5-(3-pyridinyl)-4H-1,2,4-triazol-3-yl)-3-(5-fluoro-2-pyrimidinyl)-2-butanesulfonamide]	0.06 µM	
COc1cccc(OC)c1-n1c(NS(=O)(=O)[C@@H](C)[C@H](O)c2ccc(C#N)cc2)nnc1-c1cncc(C)c1 (single isomer, unassigned) [Example 249.0, (1R,2S)-1-(4-cyanophenyl)-N-(4-(2,6-dimethoxyphenyl)-5-(5-methyl-3-pyridinyl)-4H-1,2,4-triazol-3-yl)-1-hydroxy-2-propanesulfonamide or (1S,2R)-1-(4-cyanophenyl)-N-(4-(2,6-dimethoxyphenyl)-5-(5-methyl-3-pyridinyl)-4H-1,2,4-triazol-3-yl)-1-hydroxy-2-propanesulfonamide]		0.0011 µM
COc1cnc([C@@H](OC)[C@H](C)S(=O)(=O)Nc2nnc(-c3cncc(C)c3)n2-c2c(OC)cccc2OC)cn1 (single isomer, unassigned) [Example 310.0]	0.00066 µM	
CCO[C@@H](c1cnc(C)cn1)[C@@H](C)S(=O)(=O)Nc1nnc(-c2cccc(OC)n2)n1-c1c(OC)cccc1OC (single isomer, unassigned) [Example 588.0, (1S,2R)-N-(4-(2,6-dimethoxyphenyl)-5-(6-methoxy-2-pyridinyl)-4H-1,2,4-triazol-3-yl)-1-ethoxy-1-(5-methyl-2-pyrazinyl)-2-propanesulfonamide or (1R,2S)-N-(4-(2,6-dimethoxyphenyl)-5-(6-methoxy-2-pyridinyl)-4H-1,2,4-triazol-3-yl)-1-ethoxy-1-(5-methyl-2-pyrazinyl)-2-propanesulfonamide]		0.00052 µM
CCO[C@@H](c1cnc(C)cn1)[C@@H](C)S(=O)(=O)Nc1nnc(-c2cccc(OC)n2)n1-c1c(OC)cccc1OC (single isomer, unassigned) [Example 589.0, (1S,2R)-N-(4-(2,6-dimethoxyphenyl)-5-(6-methoxy-2-pyridinyl)-4H-1,2,4-triazol-3-yl)-1-ethoxy-1-(5-methyl-2-pyrazinyl)-2-propanesulfonamide or (1R,2S)-N-(4-(2,6-dimethoxyphenyl)-5-(6-methoxy-2-pyridinyl)-4H-1,2,4-triazol-3-yl)-1-ethoxy-1-(5-methyl-2-pyrazinyl)-2-propanesulfonamide]		0.02 µM
COc1cccc(OC)c1-n1c(NS(=O)(=O)[C@@H](C)Cc2ncc(F)cn2)nnc1-c1cccc(C)n1 (single isomer, unassigned) [Example 619.0, (S)-N-(4-(2,6-dimethoxyphenyl)-5-(6-methylpyridin-2-yl)-4H-1,2,4-triazol-3-yl)-1-(5-fluoropyrimidin-2-yl)propane-2-sulfonamide or (R)-N-(4-(2,6-dimethoxyphenyl)-5-(6-methylpyridin-2-yl)-4H-1,2,4-triazol-3-yl)-1-(5-fluoropyrimidin-2-yl)propane-2-sulfonamide]	0.0015 µM	
COc1cccc(OC)c1-n1c(NS(=O)(=O)[C@@H](C)[C@H](OC)c2ncc(C)o2)nnc1-c1cncc(C)c1 (single isomer, unassigned) [Example 632.0, (1S,2R)-N-(4-(2,6-dimethoxyphenyl)-5-(5-methylpyridin-3-yl)-4H-1,2,4-triazol-3-yl)-1-methoxy-1-(5-methyloxazol-2-yl)propane-2-sulfonamide or (1R,2S)-N-(4-(2,6-dimethoxyphenyl)-5-(5-methylpyridin-3-yl)-4H-1,2,4-triazol-3-yl)-1-methoxy-1-(5-methyloxazol-2-yl)propane-2-sulfonamide]		0.21 µM
COc1cccc(OC)c1-n1c(NS(=O)(=O)[C@@H](C)[C@H](OC)c2ncc(C)o2)nnc1-c1cncc(C)c1 (single isomer, unassigned) [Example 633.0, (1S,2R)-N-(4-(2,6-dimethoxyphenyl)-5-(5-methylpyridin-3-yl)-4H-1,2,4-triazol-3-yl)-1-methoxy-1-(5-methyloxazol-2-yl)propane-2-sulfonamide or (1R,2S)-N-(4-(2,6-dimethoxyphenyl)-5-(5-methylpyridin-3-yl)-4H-1,2,4-triazol-3-yl)-1-methoxy-1-(5-methyloxazol-2-yl)propane-2-sulfonamide]		0.0069 µM
COc1cccc(OC)c1-n1c(NS(=O)(=O)[C@@H](C)[C@H](C)c2ncc(F)c([C@@H]3COCCO3)n2)nnc1-c1cccc(OCC(O)(C(F)(F)F)C(F)(F)F)n1 (single isomer, unassigned) [Example 639.0]		0.16 µM
COc1cccc(OC)c1-n1c(NS(=O)(=O)[C@@H](C)[C@H](C)c2ncc(F)c([C@@H]3COCCO3)n2)nnc1-c1cccc(OCC(O)(C(F)(F)F)C(F)(F)F)n1 (single isomer, unassigned) [Example 640.0]		0.33 µM
COc1cccc(OC)c1-n1c(NS(=O)(=O)[C@@H]2CCCO[C@@H]2c2ncc(C)cn2)nnc1-c1cncc(C)c1 (single isomer, unassigned) [Example 643.0]		0.15 µM
COc1cccc(OC)c1-n1c(NS(=O)(=O)[C@@H]2CCCO[C@@H]2c2ncc(C)cn2)nnc1-c1cncc(C)c1 (single isomer, unassigned) [Example 644.0]		0.18 µM
COc1cccc(OC)c1-n1c(NS(=O)(=O)[C@@H]2CCCO[C@@H]2c2ncc(C)cn2)nnc1-c1cncc(C)c1 (single isomer, unassigned) [Example 645.0]		0.06 µM
COc1cccc(OC)c1-n1c(NS(=O)(=O)[C@@H]2CCCO[C@@H]2c2ncc(C)cn2)nnc1-c1cncc(C)c1 (single isomer, unassigned) [Example 646.0]		0.053 µM
COc1cccc(-c2nnc(NS(=O)(=O)[C@@H]3CCCO[C@@H]3c3ncc(C)cn3)n2-c2c(OC)cccc2OC)n1 (single isomer, unassigned) [Example 654.0]		0.15 µM
COc1cccc(-c2nnc(NS(=O)(=O)[C@@H]3CCCO[C@@H]3c3ncc(C)cn3)n2-c2c(OC)cccc2OC)n1 (single isomer, unassigned) [Example 655.0]		0.13 µM
COc1cccc(-c2nnc(NS(=O)(=O)[C@@H]3CCCO[C@@H]3c3ncc(C)cn3)n2-c2c(OC)cccc2OC)n1 (single isomer, unassigned) [Example 656.0]		0.013 µM
COc1cccc(-c2nnc(NS(=O)(=O)[C@@H]3CCCO[C@@H]3c3ncc(C)cn3)n2-c2c(OC)cccc2OC)n1 (single isomer, unassigned) [Example 657.0]		0.014 µM
COc1ccnc(OC)c1-n1c(NS(=O)(=O)[C@@H](C)[C@H](OC)c2ccc(Cl)cn2)nnc1-c1cccnc1 (single isomer, unassigned) [Example 715.0, (1R,2S,P)-1-(5-chloro-2-pyridinyl)-N-(4-(2,4-dimethoxy-3-pyridinyl)-5-(3-pyridinyl)-4H-1,2,4-triazol-3-yl)-1-methoxy-2-propanesulfonamide or (1R,2S,M)-1-(5-chloro-2-pyridinyl)-N-(4-(2,4-dimethoxy-3-pyridinyl)-5-(3-pyridinyl)-4H-1,2,4-triazol-3-yl)-1-methoxy-2-propanesulfonamide]	0.00031 µM	
